From US8334253B2, “Cosmetic and dermatological formulations of MNTF peptides” (Dermacare Neuroscience Institute, priority 2008, dated 2012)
Ends that are not written are not given here.

Columns and labels:
[1] = system: gamma interferon-induced NO production in epidermal keratinocytes; assay: Inhibition of gamma interferon-induced nitric oxide production in keratinocytes (Griess reaction); format: cell-based; conditions: positive control, aminoguanidine 10 mg/mL plus gamma interferon
From the text: The study method chosen is similar to that published in the reference Tsai et al. (Tsai et al, Inhibition of inflammatory nitric oxide production and epidermis damages by Saccharomycopsis Ferment Filtrate. J Dermatol Sci 2006 June 42 (3): 249-57. Laskin, Multifunctional Role of Nitric Oxide in Inflammation, Trends Endocrinol Metab 1994; 5:377-382. Lyons, Emerging Roiles of Nitric Oxide in Inflammation, Hospital Practice, Jul. 15, 1996: 69-86.)
The objective of the study was to investigate the inhibition effect of Pal-hexapeptide (SEQ ID NO: 2, in palmitylated form) on gamma interferon-induced NO production in epidermal keratinocytes in culture.
Anti-inflammatory effect was observed as a reduction of nitric oxide production in keratinocytes. Keratinocytes were incubated 48 hours with gamma-interferon (300 U/ml) alone (as control) or with gamma-interferon together with different concentrations (0.1 μM, 1 μM, 10 μM, 100 μM and 1000 μM) of Pal-hexapeptide. Gamma interferon plus aminoguanidine (10 mg/mL) was used as positive control. The amount of NO production was detected by Griess reaction. Nitric oxide readily oxides to nitrite in aqueous medium, and this reaction was measured as nitrite accumulation in the medium. […] The optical density of the wells were read using a Tibertek Mutiskan (MCC microplate reader at a wavelength of 540 nm, subtracting the absorbance at a reference wavelength of 620 nm.) A printout of the absorbance values was generated by the plate reader, and data were entered into an EXCEL spreadsheet for analysis. The average absorbance and standard deviations were expressed as percent of control absorbances.

[2] = system: UVA-bleaching of beta-carotene; assay: UVA bleaching of beta-carotene on forearm skin, Color Index by CHROMAMETER; format: in vivo, human; conditions: human forearm
Description: In-vivo method for assessing the protective effects of cosmetic products. Bleaching of carotenoids have been used to evaluate the auto-oxidation activity of natural products. The relative efficacy of scavengers of lipid peroxyl free radicals after application to the skin was assessed by measuring the UVA-bleaching of beta-carotene as a function of the energy exposure.
A CHROMAMETER colorimeter (TM, Minolta Model CR-300) was used to measure changes in color by expressing the color of measured surfaces numerically in L*a*b* color space which is a system recommended by the CIE (Commission Internationale de I'Eclairage) for skin color assessment. In this color space, L* is the luminance and gives the relative brightness from total black (L*=0) to total white (L*=100). The a* value represents the balance between the reds (positive values) and the greens (negative values). The b* value represents the balance between the yellows (positive values) and the blues (negative values). The b* value most closely describes the intensity of the orange color of the β-carotene stain and is in direct correlation with the Color Index, I. The CHROMAMETER provides a means by which oxidative damage caused by free radicals and, conversely, the prevention of oxidation by free radical scavengers, can be measured. Free radical oxidation induced by UVA radiation elicits a bleaching and reduction of color of beta-carotene stain. The bleaching and prevention of bleaching by a test material can be measured by the CHROMAMETER. Bleaching is reported as the change in b* versus UVA Irradiation Energy. It can also be expressed in terms of a Color Index, I, defined as: I=[(bn*−bi*)/(b0*−bi*)]×100 where, bn* is the value of b* measured after n J/cm^2 of irradiation of the area treated with the cosmetic formulation and painted with the β-carotene; b0* is the value of b* after application of the beta-carotene but before irradiation; and bi* is the value of b* before application of the beta-carotene. This index compensates for any effects of skin color on bn* and b0*. Bleaching will cause bn* value and I value (as a percentage) to decrease. Prevention of bleaching will result in higher I values or less reduction in I value when exposed to radiation.
The designated forearm of impaneled subjects was cleansed with a 70% isopropyl alcohol prep pad (Medium, Dynarex) and allowed to dry. Test sites were selected on the volar surface of the designated forearm of each subject, with each test site defined by the open, central area of a self-adhesive ring (Professional ProFoot™ Products, P.P.R. Co, Inc.). The adhesive side of the rings were placed directly on the skin. The rings were used to retain the test material and beta-carotene solution as well as to function as a guide for taking measurements with the CHROMAMETER.
Gel formulations (0.1% Pal-hexapeptide) and (0.1% hexapeptide) were applied to the forearm according to a randomized schedule. Additional sites were treated with a beta-carotene control, a positive control (internal control) and an untreated control. Treatment of the test sites were randomized for each subject.
Prior to application of the test materials or beta-carotene, the initial b* parameter was measured using the CHROMAMETER and recorded for all duplicate test sites of the forearm (Baseline). Approximately 2 mg/cm^2 of each material was applied to the designated test site and spread manually with a finger cot to ensure even distribution. Sites designated as untreated, with or without beta-carotene, remained untreated at this time. The test materials and internal control were allowed to incubate with the skin surface for a period of fifteen (15) minutes. After this incubation period, b* measurements were recorded for all sites (Product Baseline).
A solution of beta-carotene in a mixture of capric and caprylic triglycerides was applied to all treated sites. The b* parameter is again measured and recorded (beta-carotene Baseline). […]

[3] = system: cellular peroxide levels in human epidermal keratinocytes; assay: Cellular peroxide levels in keratinocytes, DCFH-DA dye and flow cytometry, with and without exogenous H2O2; format: cell-based
Description: Hydrogen peroxide can induce damages to skin cells. The dermal protective efficacy of Pal-hexapeptide was assessed by measuring basal peroxide levels in the presence and absence of the compound.
Basal peroxide production, generated by normal cellular metabolism, induce gradual development of low levels of peroxide-specific cellular fluorescence.
Extracellular peroxides (e.g., H2O2 added exogenously) can permeate the cell membrane and cause a rapid and dramatic increase in the peroxide-specific fluorescence of the cell. Cellular peroxides levels can be measured by flow cytometry using the peroxide-specific dye, 2′,7′-dichlorofluorescein diacetate (DCFH-DA). DCFH-DA is initially non-fluorescent and is rapidly concentrated within living cells by an enzyme-dependent process. […] The results of the assay indicates if a test compound functions as an oxidant or an anti-oxidant in a cellular system. If the test article functions as an anti-oxidant, this assay can also be used to determine if the test compound can permeate the cell membrane to quench intracellular peroxide or if it can only affect extracellular peroxide levels (Bass et al., 1983, J. Immunol. 130:1910-1917; Bombick et al., 1992, Toxicol. Meth. 2:255-264).
Human primary keratinocytes, generally on the third passage, were seeded in T75 flasks and cultured until 70-80% confluent. A cell suspension was created and these cells were loaded with the dye DCFH-DA. The pre-incubated cells were exposed to dilutions of the Pal-hexapeptide having the amino acid sequence SEQ ID NO: 2 in two triplicate sets per dilution. One triplicate set was incubated with H2O2 (exogenous source of peroxide), and both sets were stained with Propidium Iodide. Cell viability and peroxide production were determined by fluorescence readings on a FACScan flow cytometer. Peroxide value increases or decreases of 25% or more compared to vehicle control values are considered biologically significant.

| Compound | % Control (no H2O2), peroxide level ([3]; 0.01 mM, endogenous peroxide) [%] | % Control (with H2O2), peroxide level ([3]; 0.01 mM, exogenous H2O2 added) [%] | % Control (no H2O2), peroxide level ([3]; 0.1 mM, endogenous peroxide) [%] | % Control (with H2O2), peroxide level ([3]; 0.1 mM, exogenous H2O2 added) [%] | % Control (no H2O2), peroxide level ([3]; 1 mM, endogenous peroxide) [%] | % Control (with H2O2), peroxide level ([3]; 1 mM, exogenous H2O2 added) [%] | exogenous peroxide level (as defined by the 25% cutoff), in words ([3]; 1 mM, exogenous H2O2 added) | % Control (no H2O2), peroxide level ([3]; 10 mM, endogenous peroxide) [%] | % Control (with H2O2), peroxide level ([3]; 10 mM, exogenous H2O2 added) [%] | endogenous peroxide level (as defined by the 25% cutoff), in words ([3]; 10 mM, endogenous peroxide) | exogenous peroxide level (as defined by the 25% cutoff), in words ([3]; 10 mM, exogenous H2O2 added) | other results |
| --- | --- | --- | --- | --- | --- | --- | --- | --- | --- | --- | --- | --- |
| N=C(N)NN [AG, aminoguanidine, reference compound] | – | – | – | – | – | – | – | – | – | – | – | nitric oxide production induced by Gamma-interferon, % of the control [1]: 42%; nitric oxide production induced by Gamma-interferon, % of the control ([1]; listed as positive control): 25% |
| CC1=C(/C=C/C(C)=C/C=C/C(C)=C/C=C/C=C(C)/C=C/C=C(C)/C=C/C2=C(C)CCCC2(C)C)C(C)(C)CCC1 [PC (beta-carotene), beta-carotene] | – | – | – | – | – | – | – | – | – | – | – | average Color Index Value ([2]; UVA energy 0 J/cm^2): 100%; average Color Index Value ([2]; UVA energy 1 J/cm^2): 36%; average Color Index Value ([2]; UVA energy 2 J/cm^2): 27%; average Color Index Value ([2]; UVA energy 3 J/cm^2): 23%; average Color Index Value ([2]; UVA energy 4 J/cm^2): 16%; average Color Index Value ([2]; UVA energy 5 J/cm^2): 14%; average Color Index Value ([2]; UVA energy 6 J/cm^2): 13% |
| Pal 4mer: palmitylated form of the MNTF 4 mer (SEQ ID NO:11) (FSRY; also: palmitoyl group) | 97.2 | 102.4 | 96.8 | 96.6 | 81.8 | 67.2 | decreased | – | – | – | – | – |
| FSRYAR [GM602, FSRYAR] | – | – | 94.9 | 92.9 | 73.6 | 56.0 | – | 25.0 | 14.3 | – | – | Cell viability, expressed as % of non-viable, treated versus not treated cells ([3]; keratinocytes, Propidium Iodide staining): about the same |
| Cc1c(C)c2c(c(C)c1O)CCC(C)(C(=O)O)O2 (stereo not shown) [Trolox, reference compound] | – | – | – | – | – | – | – | – | – | – | – | peroxide level, % of the control, endogenous peroxide assay without exogenous H2O2 ([3]; positive control, 300 μM, endogenous peroxide): 69.79%; peroxide level, % of the control, assay with exogenous added peroxide ([3]; positive control, 300 μM, exogenous H2O2 added): 24.97% |
| Pal 5 mer: palmitylated form of the MNTF 5 mer (SEQ ID NO:17) (FSRYA; also: palmitoyl group) | 95.3 | 98.6 | 92.8 | 96.0 | 83.6 | 62.2 | decreased | – | – | – | – | – |
| Pal 3 mer: palmitylated form of the MNTF 3 mer (SEQ ID NO:9) (Phe-Ser-Arg; also: palmitoyl group) | 99.4 | 101.0 | 98.7 | 96.1 | 101.1 | 71.9 | decreased | – | – | – | – | – |
| FSRY [CS2308] | – | – | 98.6 | 84.5 | 77.2 | 54.9 | decreased | 25.2 | −5.8 | decreased | decreased | % Control (no H2O2), peroxide level ([3]; 10 mM, endogenous peroxide, listed as MNTF 4-mer): 0%; % Control (with H2O2), peroxide level ([3]; 10 mM, exogenous H2O2 added, listed as MNTF 4-mer): 25.2% |
| FSRYA [CS2309] | – | – | 103.3 | 87.2 | 61.6 | 46.2 | decreased | 3.6 | −5.9 | decreased | decreased | endogenous peroxide level (as defined by the 25% cutoff), in words ([3]; 1 mM, endogenous peroxide): decreased; % Control (with H2O2), peroxide level ([3]; 10 mM, exogenous H2O2 added, listed as MNTF 5-mer): 0% |
| FSR [CS2307] | – | – | 98.7 | 95.5 | 60.6 | 62.5 | decreased | −8.5 | −1.5 | decreased | decreased | endogenous peroxide level (as defined by the 25% cutoff), in words ([3]; 1 mM, endogenous peroxide): decreased; % Control (no H2O2), peroxide level ([3]; 10 mM, endogenous peroxide, listed as MNTF 3-mer): 0%; % Control (with H2O2), peroxide level ([3]; 10 mM, exogenous H2O2 added, listed as MNTF 3-mer): 0% |
